≈ marks a conversion by molar mass, not a printed value.
Settings: buffer; pH 7.4; 200.0 µM

Going from Cc1ccc(NS(=O)(=O)Cc2ccccc2)cc1Cl to Cc1cccc(NC(=O)CCc2ccccc2)c1C, the solubility kinetic rises from 1.8 µg/mL (≈ 6.09 µM) to 11.8 µg/mL (≈ 46.6 µM) (6.6-fold).

CC1CCCC(NC(=O)CSc2nncs2)C1C (stereo not given) and CCn1c(=O)c2sccc2n(CC(=O)NC2CCCC2)c1=O cannot be ordered by solubility kinetic: over 42.8 µg/mL for the first, 45.4 µg/mL (≈ 141 µM) for the second.

Compared with COc1ccc(Nc2cc(C)c3cc([N+](=O)[O-])ccc3n2)cc1, COc1ccc(-c2cc(C(=O)NC3CCCC3)c3ccccc3n2)cc1 is higher in solubility kinetic: under 0.2 µg/mL for the first, 4.7 µg/mL (≈ 13.6 µM) for the second.

Going from N#C/C(=C\c1c[nH]c2ccc(Br)cc12)c1ccccn1 to O=S(=O)(Nc1ccccn1)c1ccc(Br)cc1, the solubility kinetic rises from 0.8 µg/mL (≈ 2.47 µM) to 37.9 µg/mL (≈ 121 µM) (47-fold).

First: Cc1c(-c2ccc(Br)cc2)[n+](=O)c2c(n1[O-])CCCCC2
Second: O=C(CN1CCCCCC1)Nc1ccc(Br)cc1[N+](=O)[O-]
The solubility kinetic of the first is higher: over 52.4 µg/mL for the first, 0.4 µg/mL (≈ 1.12 µM) for the second.

COc1ccc(CCNC(=O)Nc2cccs2)c(OC)c1 and COc1cccc(C(=O)NCCSCc2ccccc2Cl)c1 are within 1.5-fold of each other in solubility kinetic: 15.6 µg/mL (≈ 50.9 µM) for the first, 16 µg/mL (≈ 47.6 µM) for the second.

Going from Cc1cc(/C=C2/NC(=O)NC2=O)c(C)n1-c1ccc(C#N)cc1 to CC1(C)CC(=O)c2cc(NC(=O)c3ccc(F)cc3)c(=O)oc2C1, the solubility kinetic falls from 8.4 µg/mL (≈ 27.4 µM) to 2 µg/mL (≈ 6.07 µM) (4.2-fold).

C=CCCC(=O)N1CCCC(Cc2cccc(Cl)c2)(C(=O)OCC)C1 (stereo not given) and O=C(COc1ccc(Cl)cc1)OCC(=O)N1CCOCC1 cannot be ordered by solubility kinetic: over 54.6 µg/mL for the first, over 47.1 µg/mL for the second.

Going from Cc1cc(Cl)ccc1OCCCC(=O)NCCCn1ccnc1 to Cc1ccnc(NC(=O)c2ccc(Cl)cc2Cl)n1, the solubility kinetic falls from over 50.4 µg/mL to 31.7 µg/mL (≈ 112 µM).

Going from CN1CCN(S(=O)(=O)c2cccc(C(=O)N3CCN(c4ccccc4)CC3)c2)CC1 to O=C(OCC(=O)N1CCN(c2ccccc2)CC1)c1ccc([N+](=O)[O-])s1, the solubility kinetic falls from 63.6 µg/mL (≈ 148 µM) to 7.1 µg/mL (≈ 18.9 µM) (9-fold).

Compared with O=C(Nc1nc2ccccc2[nH]1)Nc1ccccc1F, O=C(Nc1ccccc1)O/N=C/c1ccc(F)cc1 is 3.9-fold higher in solubility kinetic: 3.3 µg/mL (≈ 12.2 µM) for the first, 12.8 µg/mL (≈ 49.6 µM) for the second.

COCCNc1nnc(Cc2ccc(OC)c(OC)c2)c(=O)[nH]1 and COC(=O)CCNC(=O)c1ccc2[nH]c(C)c(C)c2c1 cannot be ordered by solubility kinetic: over 48.1 µg/mL for the first, over 41.1 µg/mL for the second.

O=C(NCCc1ccc(Cl)cc1)C1CCCN1C(=O)Nc1ccccc1 (stereo not given) and O=C(CN1CCN(C(=O)c2ccco2)CC1)Nc1ccccc1 cannot be ordered by solubility kinetic: 54.7 µg/mL (≈ 147 µM) for the first, over 47 µg/mL for the second.

First: Cc1ccc(S(=O)(=O)NCCc2cccs2)cc1
Second: Cc1ccc(SCc2ccc(C(=O)Nc3nccs3)o2)cc1
The solubility kinetic of the first is higher: over 42.2 µg/mL for the first, 2.2 µg/mL (≈ 6.66 µM) for the second.

Going from COc1ccc(N2C(=O)CSC2c2ccc(F)c(F)c2)cc1 (stereo not given) to COc1ccc(Cn2c(C)nc3c(c(=O)c4ccccc4n3C)c2=O)cc1, the solubility kinetic falls from over 48.2 µg/mL to 0.7 µg/mL (≈ 1.94 µM).

CC(C#N)(Cc1ccccc1)Nc1ccccc1 (stereo not given) and O=C(Nc1ccc(-c2ccccc2)cc1)c1ccco1 are within 1.5-fold of each other in solubility kinetic: 18.8 µg/mL (≈ 79.6 µM) for the first, 22.4 µg/mL (≈ 85.1 µM) for the second.

Going from CCc1nc2ccccc2c(C(=O)Nc2ccc(C)cc2)c1C to COc1cc(SC)ccc1C(=O)Nc1cccc(C)n1, the solubility kinetic rises from under 0.3 µg/mL to 3.4 µg/mL (≈ 11.8 µM).

COCCNC(=O)/C(C#N)=C/c1ccc(O)cc1 and CCNC(=O)COC(=O)c1cc(-c2ccccc2)nn1-c1ccccc1 cannot be ordered by solubility kinetic: over 36.9 µg/mL for the first, over 52.4 µg/mL for the second.

Going from COc1cc(/C=C2\SC(N)=NC2=O)cc(Cl)c1O to Cc1cc(C)c(Nc2ncccc2C(=O)O)c(C)c1, the solubility kinetic rises from 9.6 µg/mL (≈ 33.7 µM) to over 38.4 µg/mL.

O=C(CCCCN1CCCCC1)c1ccccc1 and NC(=O)CCn1cnc2ccccc21 are within 1.5-fold of each other in solubility kinetic: 31.8 µg/mL (≈ 130 µM) for the first, 25.5 µg/mL (≈ 135 µM) for the second.

First: CCOC(=O)/C(C#N)=C\C1=C(N2CCOCC2)CC(C)(C)OC1
Second: CCc1cccc2c1NC(=O)C21OCCO1
The solubility kinetic of the first is higher: over 48.1 µg/mL for the first, 27.5 µg/mL (≈ 125 µM) for the second.

First: CC(C)c1ccc(C(=O)OCC(=O)c2c(N)n(C)c(=O)n(C)c2=O)cc1
Second: Cc1ccc(C(=O)C(C)OC(=O)c2nc(Cl)ccc2Cl)cc1 (stereo not given)
The solubility kinetic of the first is lower: 4.4 µg/mL (≈ 12.2 µM) for the first, over 50.7 µg/mL for the second.

CC(=O)CC(=O)C1C(=O)N(C)C(=O)N(C)C1=O and CN1C(=O)N(C)C2(C)CC1(C)N(C)C(=O)N2C cannot be ordered by solubility kinetic: over 36 µg/mL for the first, over 36 µg/mL for the second.

CC1CCN(C(=O)CN(c2cccc(F)c2)S(C)(=O)=O)CC1 and O=C1CCN(C(=O)Cc2ccccc2[N+](=O)[O-])CC1 cannot be ordered by solubility kinetic: over 49.3 µg/mL for the first, over 39.3 µg/mL for the second.

First: CCC(C)(C)NC(=O)CCCSc1nc2ccccc2[nH]1
Second: Cl.Clc1ccccc1CSC1=NCCN1
The solubility kinetic of the first is lower: 28.7 µg/mL (≈ 94 µM) for the first, over 39.5 µg/mL for the second.

CN(N)c1nc(N2CCCC2)nc(N2CCCC2)n1 and CN(C(=O)CN1CCN(c2ccccc2F)CC1)C1CCCc2ccccc21 (stereo not given) cannot be ordered by solubility kinetic: over 39.5 µg/mL for the first, over 57.2 µg/mL for the second.

Cn1ccnc1C(=O)c1ccccc1Cl and Cc1c(CCOC(=O)c2ccc(Cl)cc2Cl)sc[n+]1CC(=O)c1ccccc1.[Br-] cannot be ordered by solubility kinetic: over 33.1 µg/mL for the first, over 77.3 µg/mL for the second.

Going from O=Cc1ccc(OCC(=O)Nc2ccccc2-c2ccccc2)cc1 to COc1ccccc1C1CCN(c2cc(O)ccc2[N+](=O)[O-])CC1, the solubility kinetic rises from 0.8 µg/mL (≈ 2.41 µM) to 38.9 µg/mL (≈ 118 µM) (49-fold).

CSC1=C(C#N)C(=O)NC(c2ccccc2O)S1 (stereo not given) and O=C(Nc1nnc(C2CC2)s1)C1COc2ccccc2O1 (stereo not given) cannot be ordered by solubility kinetic: over 41.8 µg/mL for the first, over 45.5 µg/mL for the second.

Compared with CCCc1c(C)nc(-c2ccc(C)cc2)nc1OC(=O)N(C)C, O=C(COC(=O)COc1ccc(Cl)cc1Cl)NC1CCS(=O)(=O)C1 (stereo not given) is higher in solubility kinetic: 27.3 µg/mL (≈ 87.1 µM) for the first, over 59.4 µg/mL for the second.

From PubChem BioAssay AID1996
